Experimental data taken from patent US20240325336A1, “COMBINATION THERAPIES COMPRISING OXYGEN-CONTAINING STRUCTURALLY ENHANCED FATTY ACIDS FOR TREATMENT OF NON-ALCOHOLIC STEATOHEPATITIS” (NORTHSEA THERAPEUTICS B.V., priority 2020, published 2024).
“Also recorded” adds a separate entry of the source.

Assays:
[1] = CDAA/high-fat diet NASH mouse model: relative body weight and liver weight; format: in vivo; details: CDAA-HFD mice, 8 weeks QD; for liver weight: compared to untreated vehicle group (FIG. 1B)
Text: (§1) Although the widely used methionine-choline deficient (MCD) diet consistently reproduces severe NASH-like hepatic inflammation and fibrosis in mice, it is also associated with severe weight-loss (loss of both skeletal muscle and fat mass). This is associated with an increased risk of death which presents major problems for long-term fibrogenesis experiments. […] In the current study, male mice (strain C57BI/6JRj) were fed choline deficient high-fat diets (45% of total calories from fat; “CDAA/high-fat” or “CDAA-HFD”). The NASH inducing diet was instigated 6 weeks prior to the commencement of administration of active agents in order to evaluate treatment and reversal of NASH parameters. The NASH inducing CDAA-HFD was continued for the 8 weeks of administration of the indicated active agents and combinations thereof.
(§2) The aim of this study was to evaluate the effects of 8 weeks of administration of Compound A, OCA, semaglutide, and firsocostat alone and in combination on metabolic parameters, hepatic pathology, and on NAFLD Activity Score including Fibrosis Stage in male CDAA-HFD mice.
(§3) Prior to administration of the activate agents, animals were randomized into treatment groups based on body weight. A baseline group (n=12) was terminated at study start after 6 weeks on the CDAA-HFD diet. CDAA-HFD fed mice (n=10-12 per group) received daily per oral (PO) treatment with vehicle, Compound A (112 mg/kg), OCA (30 mg/kg), semaglutide (30 nmol/kg SC), firsocostat (5 mg/kg), Compound A+Semaglutide (112 mg/kg+30 nmol/kg), Compound A+OCA (112 mg/kg+30 mg/kg), and Compound A+firsocostat (112 mg/kg+5 mg/kg) for 8 weeks. Terminal liver biopsy were analyzed for histopathological scores. Terminal quantitative endpoints included plasma/liver biochemistry and liver histomorphometry.

[2] = tested on: male CDAA-HFD mice; test: CDAA/high-fat diet NASH mouse model: plasma triglycerides and total cholesterol; format: in vivo; details: 8 weeks QD, compared to untreated vehicle group (FIG. 3A)
Text: as §1, §2
Prior to administration of the activate agents, animals were randomized into treatment groups based on body weight. […] Terminal liver biopsy were analyzed for histopathological scores. Terminal quantitative endpoints included plasma/liver biochemistry and liver histomorphometry.

[3] = tested on: male CDAA-HFD mice; test: CDAA/high-fat diet NASH mouse model: liver total cholesterol and triglycerides; format: in vivo; details: 8 weeks QD; for relative levels of liver total cholesterol (normalized to liver weight): compared to untreated vehicle group (FIG. 4A); for relative levels of liver triglycerides (normalized to liver weight): compared to untreated vehicle group (FIG. 4B)
Text: as §1, §2, §3

[4] = tested on: male CDAA-HFD mice; test: CDAA/high-fat diet NASH mouse model: hepatic steatosis (H&E image analysis, steatosis score); format: in vivo; details: 8 weeks QD; for percentage of hepatocytes with lipid droplets: compared to untreated vehicle group (FIG. 5B); for steatosis scores: compared to untreated vehicle group (FIG. 6); for hepatic steatosis area (relative liver lipids): compared to untreated vehicle group (FIG. 5A)
Text: as §1, §3
(§4) Liver samples stained with Hematoxylin and Eosin (H&E) or Picro Sirius Red (PSR) were scored for NAS components (steatosis, lobular inflammation, and ballooning degeneration) and fibrosis stage respectively using the clinical criteria outlined by Kleiner et al., Hepatology, 2005; 41. Total NAS represents the sum of scores for steatosis, inflammation, and ballooning, and ranges from 0-8.
(§5) NAS and fibrosis stage was determined by deep learning applications developed by Gubra (Denmark) using the VIS software (Visiopharm®, Denmark) for a more accurate and objective method for staging disease in DIO-NASH mouse models.
(§6) Scanned H&E stained slides were analyzed in several steps: • 1. Tissue detection at low magnification, followed by deep learning-based detection of portal triads and central veins at 10× magnification. • 2. Another deep learning application detected nuclei of hepatocytes with lipid droplets, hepatocytes without lipids, ballooned hepatocytes, and inflammatory cells at 20× magnification. Inflammatory foci were defined as a cluster of >3 inflammatory cells. • 3. The inflammation score of the liver tissue sample was the average score for all 20× fields.
Steatosis score was calculated as percentage of hepatocytes with lipid droplets.
Hepatic steatosis area (relative liver lipids) was quantified on H&E stained slides by image analysis using the VIS software (Visiopharm®, Denmark). VIS protocols are designed to analyze the virtual slides in two steps: • 1. Tissue detection at low magnification (1× objective); and • 2. Detection of steatosis and tissue at high magnification (20× objective).
The quantitative estimates of steatosis were calculated as an area fraction as follows: […]

[5] = tested on: male CDAA-HFD mice; test: CDAA/high-fat diet NASH mouse model: hepatic inflammation and NAFLD activity score; format: in vivo; details: 8 weeks QD; for NAFLD activity scores (NAS): compared to untreated vehicle group (FIG. 8B); for number of inflammatory cells (per mm^2): compared to untreated vehicle group and to baseline levels (FIG. 7A); for inflammatory foci (per mm^2): compared to untreated vehicle group and to baseline levels (FIG. 7B)
Text: as §1, §3, §4, §5, §6

[6] = tested on: male CDAA-HFD mice; test: CDAA/high-fat diet NASH mouse model: hepatic fibrosis markers (hydroxyproline, galectin-3, PSR, α-SMA); format: in vivo; details: 8 weeks QD; for galectin-3 hepatic fractional area: compared to untreated vehicle group (FIG. 9B); for hepatic fibrotic area determined by PSR staining: compared to untreated vehicle group (FIG. 10A); for sinusoidal fibrotic area (PSR): compared to untreated vehicle group (FIG. 10B)
Text: as §1, §3
Scanned PSR stained slides were analyzed in several steps: • 1. Tissue detection at low magnification, followed by deep learning-based detection of portal triads and central veins at 10× magnification. Periportal zone was defined as 100 μm around the portal triads. • 2. Fibrosis fibers were detected using the linear Bayesian image analysis method in the periportal and sinusoidal zones. • 3. Bridging was detected using threshold image analysis based on a polynomial local linear filter feature. • 4. Different measures of size, shape and connectivity form both fibrosis and bridging fibrosis in the two zoned were used in a XGBoost classifier to predict fibrosis stage.
Immunohistochemistry (IHC)-positive staining was quantified by image analysis using the VIS software (Visiopharm®, Denmark) using two steps: • 1. Detection of tissue at low magnification (1× objective), excluding the liver capsule; and • 2. Detection of IHC-positive staining.
The quantitation of IHC-positive staining is calculated as an area fraction as follows: […]
IHC factional area quantification was assessed for galectin-3, collagen 1A1, and α-smooth muscle actin.
Hepatic factional area assessment with picrosirius red stain was determined using the same methods.
Hepatic fibrotic area was determined by staining with picrosirus red (PSR), which binds collagen, and histological quantitative assessment.

[7] = tested on: rodent NASH models; details: APOE*3Leiden.CETP high-fat diet, ob/ob AMLN, STAM and CDAA/high-fat diet mouse models; WO2019111048; cited from earlier work
[8] = tested on: APOE*3Leiden.CETP mice; details: WO2016173923A1, cited from earlier work

CC/C=C\C/C=C\C/C=C\C/C=C\C/C=C\CCCCOC(CC)C(=O)O (centres unmarked) [Compound A, 2-((5Z,8Z,11Z,14Z,17Z)-icosa-5,8,11,14,17-pentaenyloxy)butanoic acid]
liver weight [1]: decreased | plasma triglycerides [2]: significantly decreased | relative levels of liver total cholesterol (normalized to liver weight) [3]: significant decrease | relative levels of liver triglycerides (normalized to liver weight) [3]: significant decrease | percentage of hepatocytes with lipid droplets [4]: significantly decreased | steatosis scores [4]: decreased | NAFLD activity scores (NAS) [5]: significantly decreased | number of inflammatory cells (per mm^2) [5]: significant decrease; also recorded: below the baseline level | inflammatory foci (per mm^2) [5]: significant decrease; also recorded: below the baseline level | galectin-3 hepatic fractional area [6]: significantly decreased | hepatic fibrotic area determined by PSR staining [6]: significantly decreased | sinusoidal fibrotic area (PSR) [6]: Neither compound alone had a significant effect | hepatic area expressing α-SMA ([6]; compared to untreated vehicle group (FIG. 11B)): neither Compound A nor OCA significantly affecting | effect on aspects of NASH (hepatic steatosis, inflammation, fibrosis) [7]: address multiple aspects of NASH, including hepatic steatosis, inflammation, and fibrosis

CC/C=C\C/C=C\C/C=C\C/C=C\C/C=C\CCCCSC(CC)(CC)C(=O)O [Compound N, 2-ethyl-2-((5Z,8Z,11Z,14Z,17Z)-icosa-5,8,11,14,17-pentaenylthio)butanoic acid]
fibrosis (as measured by hydroxyproline/proline ratio) ([8]; APOE*3Leiden.CETP mice): effective in reducing fibrosis | influx of inflammatory cells into the liver [8]: prevented | preventing diet-induced hepatic fibrosis, compared with rosiglitazone [8]: superior to rosiglitazone

COc1ccccc1[C@H](Cn1c(=O)n(C(C)(C)C(=O)O)c(=O)c2c(C)c(-c3ncco3)sc21)OC1CCOCC1 [firsocostat]
hepatic steatosis area (relative liver lipids) [4]: significantly greater | percentage of hepatocytes with lipid droplets [4]: significantly decreased | steatosis scores [4]: decreased | NAFLD activity scores (NAS) [5]: significantly decreased | galectin-3 hepatic fractional area [6]: neither semaglutidue nor firsocostat having a significant effect

semaglutide
liver weight [1]: decreased | last recorded relative body weight ([1]; compared to vehicle (FIG. 1A)): decreased | relative levels of liver total cholesterol (normalized to liver weight) [3]: did not significantly affect | relative levels of liver triglycerides (normalized to liver weight) [3]: not significantly affecting | hepatic steatosis area (relative liver lipids) [4]: not significantly affecting either parameter; also recorded: did not have a significant effect | percentage of hepatocytes with lipid droplets [4]: not significantly affecting either parameter; also recorded: did not significantly affect | number of inflammatory cells (per mm^2) [5]: not having a significant effect | inflammatory foci (per mm^2) [5]: not having a significant effect | galectin-3 hepatic fractional area [6]: not having a significant effect | galectin-3 hepatic fractional area ([6]; listed as semaglutidue): neither semaglutidue nor firsocostat having a significant effect | hepatic fibrotic area determined by PSR staining [6]: did not significantly affect | sinusoidal fibrotic area (PSR) [6]: Neither compound alone had a significant effect | galectin-3 expressing area compared to baseline ([6]; vs baseline (6 weeks CDAA-HFD, before therapy) (FIG. 9B)): significantly increased
